The source of these data is patent EP4813980A1, “EP300/CBP REGULATOR, AND PREPARATION METHOD THEREFOR AND USE THEREOF” (Miracure Biotechnology Limited, priority 2023, dated 2025).

What all share (experiment): Cell growth inhibition, CellTiter-Glo, 72 h
Holding throughout (type): cell-based

One assay has as its system MM1S cells. Conditions: Homo sapiens, MM1.S, 72 h culture, mean of N=2. As for the experimental part:
(§1) 22RV1, vCap, MM1S and OPM-2 cells were cultured in RPMI-1640 medium (10% fetal bovine serum and 100 units of penicillin/streptomycin dual-antibody per mL were added to RPMI-1640) in a cell incubator at 37°C with 5% CO2, respectively. Cells in logarithmic growth phase were seeded into 96-well cell culture plates at 5×10^3 cells/100 µL/well and cultured overnight. Active compounds dissolved in DMSO at different concentrations were added with a final concentration of 0.5% DMSO. 1% Tween 20 was used as positive control and 0.5% DMSO was used as negative control. After 72 h of culture, an equal volume of CellTiter-Glo was added to each well, mixed by shaking for 2 min, and left standing at room temperature for 10 min. […] signal values were read with a microplate reader. Data were analyzed and graphs were generated using Prism 7.0. The values shown are mean ± SEM (N=2). […] The formula for inhibition rate is as follows: % Inhibition = (Icompound−IZPE)/(IHPE−IZPE) × 100 [formula]
(§2) The X-axis is compound concentration (nM), and the Y-axis is % Inhibition.

In the next assay the test system is 22RV1 cells. As to conditions: 72 h culture, mean of N=2. As for the experimental part: as §1, §2
The test system of another assay is vCap cells. As to conditions: 72 h culture, mean of N=2. Here is the method: as §1, §2

In the case of `CNC(=O)N1CCc2cc(C3CCN(CC4CCN(CCOc5cccc6c5CN(C5CCC(=O)NC5=O)C6=O)CC4)CC3)cc(N3CCCc4cc(-c5cnn(C)c5)c(C(F)F)cc43)c2C1` (stereo not drawn) [Compound 2065], the IC50 was 0.28 nM in the assay with MM1S cells and 0.41 nM in the assay on 22RV1 cells (Homo sapiens).

For the compound `CC(=O)N1Cc2cc(C3CCOCC3)cc(-c3cccc4cc(-c5ccc(C(=O)N6CCC(Nc7cccc8c7C(=O)N(C7CCC(=O)NC7=O)C8=O)CC6)nc5)ncc34)c2C1` (stereo not drawn) [Compound 2074, 4-((1-(5-(8-(2-acetyl-6-(tetrahydro-2H-pyran-4-yl)isoindolin-4-yl)isoquinolin-3-yl)pyridinecarbonyl)piperidin-4-yl)amino)-2-(2,6-dioxopiperidin-3-yl)isoindoline-1,3-dione], the IC50 in the assay on MM1S cells was 426 nM; in the assay with 22RV1 cells (Homo sapiens), over 10000 nM.

As to `CC(=O)N1Cc2cc(C3CCN(Cc4ccc(COc5cccc6c5CN(C5CCC(=O)N(COC(=O)CN)C5=O)C6=O)cc4)CC3)cc(N3CCCc4cc(-c5cnn(C)c5)c(C(F)F)cc43)c2C1` (stereo not drawn) [Compound 2064, (3-(4-((4-((2-acetyl-7-(7-(difluoromethyl)-6-(1-methyl-1H-pyrazol-4-yl)-3,4-dihydroquinolin-1(2H)-yl)isoindol-5-yl)piperidin-1-yl)methyl)benzyl)oxy)-1-oxoisoindolin-2-yl)-2,6-dioxopiperidin-1-yl)methyl glycinate], the results for the IC50 in the assay on 22RV1 cells (Homo sapiens) and in the assay with vCap cells (Homo sapiens) were 0.23 nM and 0.35 nM, respectively.

As to `CC(=O)n1cc2cc(C3CCN(C(=O)CN4CCC(C#Cc5cccc6c5n(C)c(=O)n6C5CCC(=O)NC5=O)CC4)CC3)cc(N3CCCc4cc(-c5cnn(C)c5)c(C(F)F)cc43)c2c1` (stereo not drawn) [Compound 2048, 3-(4-((1-(2-(4-(2-acetyl-7-(7-(difluoromethyl)-6-(1-methyl-1H-pyrazol-4-yl)-3,4-dihydroquinolin-1(2H)-yl)isoindol-5-yl)piperidin-1-yl)-2-oxoethyl)piperidin-4-yl)ethynyl)-3-methyl-2-oxo-2,3-dihydro-1H-benzo[d]imidazol-1-yl)piperidine-2,6-dione], the IC50 was found to be 1.84 nM in the assay with 22RV1 cells (Homo sapiens) and 1.85 nM with vCap cells (Homo sapiens).

`CC(=O)n1cc2cc(C3CCN(C(=O)CCCCCCCNc4ccc5c(c4)n(C)c(=O)n5C4CCC(=O)NC4=O)CC3)cc(N3CCCc4cc(-c5cnn(C)c5)c(C(F)F)cc43)c2c1` (stereo not drawn) [Compound 2004, 3-[5-[[8-[4-[2-acetyl-7-[7-(difluoromethyl)-6-(1-methylpyrazol-4-yl)-3,4-dihydro-2H-quinolin-1-yl]isoindol-5-yl]piperidin-1-yl]-8-oxooctyl]amino]-3-methyl-2-oxobenzoimidazol-1-yl]piperidine-2,6-dione]: the 50% inhibitory concentration (IC50) with 22RV1 cells (Homo sapiens) amounted to 0.03 nM; in the assay on vCap cells (Homo sapiens), 0.12 nM.

Consider `CNC(=O)N1CCc2cc(C3CCN(Cc4ccc(CCOc5cccc6c5CN(C5CCC(=O)NC5=O)C6=O)cc4)CC3)cc(N3CCCc4cc(-c5cnn(C)c5)c(C(F)F)cc43)c2C1` (stereo not drawn) [Compound 2012], for which the IC50 was found to be 0.62 nM in the assay with 22RV1 cells (Homo sapiens) and 2.31 nM in the assay on vCap cells (Homo sapiens).

Turning to “3-{5-[8-(4-{2-acetyl-7-[7-(difluoromethyl)-6-(1-methylpyrazol-4-yl)-3,4-dihydro-2H-quinolin-1-yl]-1,3-dihydroisoindol-5-yl}piperidin-1-yl)-8-oxo-1-yn-1-yl]-3-methyl-2-oxo-1,3-benzodiazol-1-yl}piperidine-2,6-dione [Compound 2030]”, the 50% inhibitory concentration (IC50) came to 0.34 nM with 22RV1 cells and 0.1 nM in the assay on vCap cells.

As for `CC(=O)N1Cc2cc(C3CCN(Cc4ccc(CCOc5cccc6c5CN(C5CCC(=O)NC5=O)C6=O)cc4)CC3)cc(N3CCCc4cc(-c5cnn(C)c5)c(C(F)F)cc43)c2C1` (stereo not drawn) [Compound 2003], the IC50 in the assay with 22RV1 cells (Homo sapiens) came to 0.69 nM; in the assay with vCap cells (Homo sapiens) it was 0.19 nM.

For the compound `CC(=O)N1Cc2cc(C3CCN(C(=O)CCCCCCNc4cccc5c4n(C)c(=O)n5C4CCC(=O)NC4=O)CC3)cc(N3CCCc4cc(-c5cnn(C)c5)c(C(F)F)cc43)c2C1` (stereo not drawn) [Compound 2007], the IC50 in the assay with 22RV1 cells (Homo sapiens) stood at 0.04 nM; in the assay with vCap cells (Homo sapiens), 0.01 nM.

What is called IC50 is the concentration that inhibits the measured activity by half. Low readings indicate inhibition by little substance, high ones a need for much substance.
